The values below are quoted from earlier work in US12569628B2, “Delivery of medicinal gas in a liquid medium” (Third Pole, Inc., priority 2022, dated 2026).

Where two headings read alike, the source gives them in different places.

One data set relates to immune system. The following applies: low concentrations.

On to `[N]=O` [NO, nitric oxide], for which, in the data set on immune system, the “concentration at which NO stimulates the immune system” value is listed as 10^−12 to 10^−9 M. The “Henry's law constant kH” value is listed as “approximately 6.65×10^−5 mol/m^3 Pa” (NO in alcohol) and 1.9×10^−5 mol/m^3 Pa (NO in water).
